This note sets out measurements from US7745465B2, “Method of enhancing cellular production of molecular chaperone, hydroxylamine derivatives useful for enhancing the chaperone production and the preparation thereof” (CytRx Corporation, priority 1995, dated 2010).

Series [1] relates to H9c2 rat heart muscle cell. Nature of the series: Serum deprivation, cell viability by MTT test (H9c2). As to conditions: serum deprived H9c2, 10^−5 M, control 100%, serum deprived alone 50.5%, read-out: relative cell viability. The class given is cell-based. On the procedure:
Experiments were carried out using WEH1 mouse fibrosarcoma and H9c2 rat heart muscle cell lines divided into three groups: • control (10% FCS fetal calf serum) • serum deprived • N-[2-hydroxy-3-(1-piperidinyl)propoxy]-3-pyridinecarboximidoyl chloride maleate (10^−5 M) treated and serum deprived 1.2(i) Serum Deprivation and MTT Test
We have screened various cell lines, drug concentrations, pretreatment and deprivation times and we have found the most appropriate conditions as follows: […] H9c2 rat heart muscle cell (n=6) and WEHI mouse fibrosarcoma cell (n=7) have been plated on 24 well plates in 10% FCS DMEM (Dulbecco modified Eagle's medium) and incubated for 2 hours at 37 C, 5% CO2. Medium has been discarded and replaced by 10% FCS DMEM containing 10^−5 M N-[2-hydroxy-3-(1-piperidinyl)propoxy ]-3-pyridinecarboximidoyl chloride maleate. […] Cell viability was measured by MTT test based on the method of Plumb et al. (Cancer Res. 49: 4435-4444 (1989)) The tetrazolium salt method involving conversion of MTT (3-(4,5-dimethylthiazol-2yl)-2,5-diphenyltetrazolium bromide) to colored formazan by alive cells, served as an indirect measurement of cell viability. […] O.D. of the plates was read at 570 nm on an ELISA plate reader (Labsystems Multiskan Biochromatic type:348). […] Relative cell viability was calculated defining control group as 100%.
(Formazan colour is commonly taken as a measure of viable cells.)

In series [2] the test system is isolated working rat hearts. The series is described as follows: Isolated working rat hearts, 10-min. coronary occlusion and 3-min. reperfusion. The note with it: for cardioprotection after pretreatment: 20 mg/kg. On the procedure:
After a 10-min. aerobic working perfusion, hearts (n=10 in each group) were subjected to a 10-min. coronary occlusion followed by a 3-min. reperfusion in the presence of 0.05, 0.5, 5.0, 20.0, and 50 mg/L N-[2-hydroxy-3-(1-piperidinyl)propoxy]-3-pyridine carboximidoyl chloride maleate, respectively.
After excision of the hearts, they were subjected to the coronary occlusion protocol detailed above while perfused in presence/absence of 20 mg/l N-[2-hydroxy-3-(1-piperidinyl)propoxy]-3-piridinecarboximidoyl chloride maleate.

In a further series the test system is hsp72. Nature of the series: HgCl2 stress induced hsp72 level in U-937 cells. As to conditions: 10^−5 M, 0.5 μg/ml HgCl2, 6 hours. The class given is cell-based, human. The protocol:
From the applied cells the 3T3 and L-929 mouse fibroblasts were cultured in MEM medium and grew in monolayer, the U-937 human leukemia cells were maintained in RPMI-1640 medium, in suspension culture, while the HeLa human epithelial cells were cultured in DMEM medium and in monolayer form. Cell cultures were maintained as described in example 6.2 (a) with the difference that cells were cultured in the above mentioned culture mediums.
Experiments were carried out applying stress before and after the drug treatment. Stress was provoked by heat, by chemical agent, HgCl2 treatment. The test compounds were applied in the treatments at the 10^−5 M concentration.
These experiments were performed on HeLa, human epithelial and U-937, human leukemia cells using HgCl2 to induce stress response. Drug treatment was carried out before cells were exposed to the stress. Test cultures were prepared and treatments were performed as in the experiments with the 3T3 cells. After the drug treatment cells were incubated at 37° C. for 15 min. than all the cultures except two (non stressed control) were exposed to 0.5 μg/ml concentration of HgCl2 and the incubation was followed. The induced amount of hsp72 was measured 6 hours after the exposure to stress.

A word on the viability: it is a read-out of living cells in per cent, often relative to untreated cells. Consider `O=C(O)/C=C\C(=O)O.OC(CON=C(Cl)c1cccnc1)CN1CCCCC1` (centres unmarked) [N-[2-hydroxy-3-(1-piperidinyl)-propoxy]3-pyridinecarboximidoyl chloride maleate], for which, in series [1], the viability at 10 µM was 82.8%. Moreover, the cardioprotection after pretreatment result in series [2] (five hours before isolation of the hearts) is on record as “not observable”; in series [2] (one hour before isolation of the hearts) it was “still afforded cardioprotection”. Besides, the “ischemia-induced deterioration of cardiac function” value in series [2] (0.05-50 mg/L, bell-shaped, 20 mg/L most pronounced) is listed as “alleviated ischemia-induced deterioration of cardiac function”. The “heart rate before ischemia” value in series [2] (50 mg/L) is given as “significant bradycardia”. Further, the “coronary flow (CF)” value in series [2] (before ischemia, bell-shaped concentration-response) is “increased coronary flow (CF)”. Further, the reperfusion-induced ventricular fibrillation result in series [2] (higher concentrations) is recorded as “dose-dependent antiarrhythmic effect”. Moreover, the “increase of the stress induced hsp72 level relative to the stress exposed control” value with hsp72 is reported as “more than 20%”.
